Results: patent publication US20130251822A1, “BIOCIDAL ALDEHYDE COMPOSITION” (priority 2011, published 2013)

How the values were obtained:
[1] = cited from earlier work
[2] = test system: acid-producing bacteria (APB); test: effective kill time of acid-producing bacteria; type: cell-based
Procedure: (§1) When TTPC was added to the core glutaraldehyde or OPA as a substitute for dual chain quaternary ammonium the effective kill time was twice as fast (2×) based upon log reduction. Similarly, the TTPC reduced the effective kill time of acid-producing bacteria (APB) by almost 50%. Although the kill speed of TTPC alone was 20% slower than the glut/quat formula of copending U.S. patent application Ser. No. 12/584,648, when incorporated with glutaraldehyde as a substitute for dual chain quaternary ammonium the kill time […] to four times faster, evidencing the synergism of the present combination.

[3] = effectiveness based upon a 5 log reduction in oil frac water; type: cell-based
From the text: (§2) As such there is actually a slight increase in planktonic microbes which are more susceptible to biocide/TTPC effects. Individual biocides affect the physiology of the cell quite differently. […] This is an example of enhanced […]. The importance of the environmental parameter cannot be underestimated based upon the foregoing results. TTPC has a similar margin of exposure as the quats used for killing of aerobic organisms. […] The minimum inhibitory concentration (MIC) for the TTPC usage is 50-500 ppm. Therefore it is safe regarding corrosiveness, an important facet in instrument sterilization. […] The faster cidal action is due basically to the chemistry difference between amine quats and phosphonium salts. The ammonium quats have longer alkyl chains. Instead of amine the difference is a phosphonium ion but also importantly is the alkyl chain length. It has been determined that there is an optimal length for anti-bacterial effectiveness. It was dependent upon chain length and attachment moieties. […] Usually the longer chain was better but not in these cases. […] TTPC did. There are great differences between Gram + and Gram − bacteria in their cell walls. […] The Gram − wall is complicated. It has in addition to the wall of G+ an outer membrane of lipopolysaccharide and phospholipids that protects the cell.

Pseudomonas aeruginosa = test: chlorine dioxide (ClO2) and TTPC versus Pseudomonas aeruginosa, log reduction; type: cell-based; conditions: 10^5 ml
Procedure: A test with chlorine dioxide (ClO2) and TTPC versus Pseudomonas aeruginosa was performed at 10^5 ml with ClO2 of 10 ppm. This alone gave a 1 log reduction in 30 min exposure. TTPC alone at 50 ppm gave a 2 log reduction. The combination of ClO2 and TTPC of 5ppm and 10 ppm gave a 5 log reduction in 30 min.

[4] = effective kill time based upon log reduction, TTPC versus dual chain quaternary ammonium; type: cell-based; conditions: TTPC alone
Procedure: as §1

[5] = test system: MRSA, B. subtillis, E coli, pseudomonas aeruginosa, candida; test: kill of test microorganisms in allotted time of 30 minutes; type: cell-based
From the text: as §2

[6] = minimum inhibitory concentration (MIC); type: cell-based
From the text: as §2

[7] = test system: sulfur reducing bacteria (SRB); test: efficacy on sulfur reducing bacteria; type: cell-based
From the text: as §2

O=CCCCC=O [glutaraldehyde, Glutaraldehyde]
residence time for disinfection ([1]; controlled temperature from 20 C to 25-30 C): 45 to 90 min

CCCCCCCCCCCCCC[P+](CCCC)(CCCC)CCCC.[Cl-] [TTPC, tributyl tetradecyl phosphonium chloride]
reduction of effective kill time [2]: ~50% | effectiveness relative to original glut/quat formula [3]: 2 × | log reduction (Pseudomonas aeruginosa; TTPC alone at 50 ppm): 2 log reduction | kill speed slower than the glut/quat formula [4]: 20% | kill of all the test bacteria in the allotted time [5]: did | minimum inhibitory concentration (MIC) [6]: 50-500 ppm | efficacy on sulfur reducing bacteria (SRB) [7]: almost equally effective

[O][Cl+][O-] [ClO2, chlorine dioxide]
log reduction (Pseudomonas aeruginosa; ClO2 of 10 ppm alone, 30 min exposure): 1 log reduction

O=Cc1ccccc1C=O [OPA, orthophthalaldehyde]
disinfection time ([1]; high level disinfectant, 20-22 degrees C.): twelve
